1 compound from patent US20200268779A1, “USE OF SECOISOLARICIRESINOL DIGLUCOSIDES (SDGs) AND RELATED COMPOUNDS FOR PROTECTION AGAINST RADIATION-INDUCED CARDIOVASCULAR DYSFUNCTION” (THE TRUSTEES OF THE UNIVERSITY OF PENNSYLVANIA, priority 2017, published 2020) can be followed below.

Molecules are shown by their SMILES.

The experiment relates to mice exposed to thoracic radiation. The experiment in a line: Thoracic radiation exposure in mice, non-invasive pulse oximetry (MouseOx). The following applies: male C57/LJ mice, single fraction thoracic radiation, LGM2605 post exposure daily for 3 weeks or daily for 3 months, measured 130-140 days post radiation. The experiment is classed as in vivo. On the procedure: FIG. 1. Arterial Oxygen saturation (A) and Pulse Distention (B) were measured in living mice (n=5), between 130 and 140 days post single fraction thoracic radiation exposure.
Mice (male, C57/LJ) were exposed to thoracic radiation and evaluated for multiple cardio-pulmonary measurements such as arterial oxygen saturation and pulse distention using non-invasive Pulse Oximetry (MouseOx non-invasive vital signs monitor STARR Life Sciences Corp., Oakmont, Pa.).
Pulse Distention is the amplitude of the cardiac light absorption signals. Pulse Distention is a hemodynamic measurement obtained by the pulse oximetry software, a measure of the local blood flow (carotid arteries) at the sensor location. […] This could indicate that LGM2605 helps reduce downstream effects of inflammation in tissues other than the lung.

With `COc1cc(C[C@@H](CO[C@@H]2O[C@H](CO)[C@@H](O)[C@H](O)[C@H]2O)[C@H](CO[C@@H]2O[C@H](CO)[C@@H](O)[C@H](O)[C@H]2O)Cc2ccc(O)c(OC)c2)ccc1O` [LGM2605, secoisolariciresinol diglucoside], the Pulse distention entry (decreased significantly in irradiated controls (FIG. 1B)) is on record as “remained at baseline levels”. In addition, the “Arterial blood oxygenation (arterial oxygen saturation)” value (vs irradiated controls and vehicle (FIG. 1A)) is listed as “improved arterial blood oxygenation”.
